Results on 1 compound are retold here after patent US20200171166A1, “GEL COMPOSITION AND METHOD FOR PRODUCING GEL COMPOSITION” (Shimadzu Corporation, priority 2015, published 2020).

Each structure is given as a SMILES string.

This data set has as its system three-dimensional cultured corneal epithelium model from human normal corneal epithelium cells (LabCyte CORNEA-MODEL). Nature of the data set: Irritativeness test using a cornea model (WST-8 assay). To be noted: exposure to 50 μL of test substance. In kind it is cell-based. The procedure:
Prepared as test substances were hydrogels made under the same conditions as in the above preparation examples 3A to 3C (prepared from methanol gel, ethanol gel, and 2-butanol gel, respectively); solution in which 611 mg of NMP was added to 500 mg of PLGA; NMP; and distilled water (negative reference). A standard protocol was followed using a three-dimensional cultured corneal epithelium model from human normal corneal epithelium cells (J-TEC, LabCyte CORNEA-MODEL), and exposure tests were carried out on 50 μL of the test substances. Using a WST-8 assay kit (Dojin Chemical, product code: CK04), following the exposure test, a WST-8 assay was done on the samples, the OD value was measured with a plate reader (TECAN, Infinite 200 Pro), and the relative survival rate (proportion of live cells) was calculated for the negative object (distilled water).
Background: Formazan colour is commonly taken as a measure of viable cells.

Turning to `CN1CCCC1=O` [NMP, N-methyl pyrrolidone], the “irritativeness toward the cornea” value is given as “strong”.
